Results as given in US8735438B2, “Substituted-aryl-2-phenylethyl-1H-imidazole compounds as subtype selective modulators of alpha 2B and/or alpha 2C adrenergic receptors” (Allergan, Inc., priority 2008, dated 2014).
Like-named read-outs stand apart in the source and are kept apart here.

How the values were obtained:
Format in all cases: cell-based
[1] = target: T1, alpha 2A receptor (Homo sapiens, UniProt P08913); assay: RSAT (Receptor Selection and Amplification Technology) assay, alpha 2A; conditions: NIH-3T3 cells cotransfected with receptor and Gq/i5; ratio of maximal effect to that of standard full agonist brimonidine (UK14304)
T1 construct: expressed in transfected cells; host or cells: NIH-3T3 cells
T1 sequence (P08913 1-465): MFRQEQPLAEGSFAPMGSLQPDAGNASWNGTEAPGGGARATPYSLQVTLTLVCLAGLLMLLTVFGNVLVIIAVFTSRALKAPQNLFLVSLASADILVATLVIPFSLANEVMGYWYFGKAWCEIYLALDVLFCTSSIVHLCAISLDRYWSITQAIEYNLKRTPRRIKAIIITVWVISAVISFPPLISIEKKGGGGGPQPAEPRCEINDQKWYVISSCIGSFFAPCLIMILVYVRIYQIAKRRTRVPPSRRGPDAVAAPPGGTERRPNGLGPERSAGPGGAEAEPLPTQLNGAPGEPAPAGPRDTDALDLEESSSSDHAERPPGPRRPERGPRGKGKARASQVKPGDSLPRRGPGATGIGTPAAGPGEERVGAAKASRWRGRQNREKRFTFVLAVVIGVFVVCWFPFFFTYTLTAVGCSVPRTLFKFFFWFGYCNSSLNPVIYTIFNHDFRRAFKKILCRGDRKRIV
Source text: The compounds disclosed herein are agonists of alpha 2B/2C adrenergic receptors. […] 76, pp. 308-311 (incorporated herein by reference) and is also described below. Another reference pertinent to this assay is Conklin et al. (1993) Nature 363: 274-6, also incorporated herein by reference.
(§1) The RSAT assay measures a receptor-mediated loss of contact inhibition that results in selective proliferation of receptor-containing cells in a mixed population of confluent cells. The increase in cell number is assessed with an appropriate transfected marker gene such as β-galactosidase, the activity of which can be easily measured in a 96-well format. Receptors that activate the G protein, Gq, elicit this response. Alpha 2 receptors, which normally couple to Gi, activate the RSAT response when coexpressed with a hybrid Gq protein that has a Gi receptor recognition domain, called Gq/i5.
(§2) NIH-3T3 cells are plated at a density of 2×10^6 cells in 15 cm dishes and maintained in Dulbecco's modified Eagle's medium supplemented with 10% calf serum. One day later, cells are cotransfected by calcium phosphate precipitation with mammalian expression plasmids encoding p-SV-β-galactosidase (5-10 μg), receptor (1-2 μg) and G protein (1-2 μg). 40 μg salmon sperm DNA may also be included in the transfection mixture. Fresh media is added on the following day and 1-2 days later, cells are harvested and frozen in 50 assay aliquots. Cells are thawed and 100 μl added to 100 μl aliquots of various concentrations of drugs in triplicate in 96-well dishes. Incubations continue 72-96 hr at 37° C. After washing with phosphate-buffered saline, .E-backward.-galactosidase enzyme activity is determined by adding 200 μl of the chromogenic substrate (consisting of 3.5 mM o-nitrophenyl-beta-D-galactopyranoside and 0.5% nonidet P-40 in phosphate buffered saline), incubating overnight at 30° C. and measuring optical density at 420 nm. The absorbance is a measure of enzyme activity, which depends on cell number and reflects a receptor-mediated cell proliferation. The efficacy or intrinsic activity is calculated as a ratio of the maximal effect of the drug to the maximal effect of a standard full agonist for each receptor subtype. Brimonidine, also called UK14304, the chemical structure of which is shown below, is used as the standard agonist for the alpha 2A, alpha 2B and alpha 2C receptors.

[2] = target: T2, alpha 2B receptor (Homo sapiens, UniProt P18089); assay: RSAT (Receptor Selection and Amplification Technology) assay, alpha 2B; conditions: for Alpha 2B intrinsic activity (efficacy), value in parentheses: ratio of maximal effect to that of standard full agonist brimonidine (UK14304)
T2 construct: expressed in transfected cells; host or cells: NIH-3T3 cells
T2 sequence (P18089 1-450): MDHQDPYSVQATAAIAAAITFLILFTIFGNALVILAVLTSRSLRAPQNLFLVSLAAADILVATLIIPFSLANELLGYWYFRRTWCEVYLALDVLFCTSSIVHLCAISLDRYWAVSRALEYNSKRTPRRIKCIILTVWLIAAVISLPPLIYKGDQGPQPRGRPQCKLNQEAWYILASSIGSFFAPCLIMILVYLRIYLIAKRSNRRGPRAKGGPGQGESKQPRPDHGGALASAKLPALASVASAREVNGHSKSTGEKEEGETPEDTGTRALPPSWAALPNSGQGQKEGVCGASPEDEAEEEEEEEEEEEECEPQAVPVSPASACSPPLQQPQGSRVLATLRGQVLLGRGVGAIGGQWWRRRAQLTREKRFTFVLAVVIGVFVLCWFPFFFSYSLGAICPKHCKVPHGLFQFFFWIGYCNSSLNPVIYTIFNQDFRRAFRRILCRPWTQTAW
Experimental: as §1, §2

[3] = target: T3, alpha 2C receptor (Homo sapiens, UniProt P18825); assay: RSAT (Receptor Selection and Amplification Technology) assay, alpha 2C; conditions: for Alpha 2C intrinsic activity (efficacy), value in parentheses: ratio of maximal effect to that of standard full agonist brimonidine (UK14304)
T3 construct: expressed in transfected cells; host or cells: NIH-3T3 cells
T3 sequence (P18825 1-462): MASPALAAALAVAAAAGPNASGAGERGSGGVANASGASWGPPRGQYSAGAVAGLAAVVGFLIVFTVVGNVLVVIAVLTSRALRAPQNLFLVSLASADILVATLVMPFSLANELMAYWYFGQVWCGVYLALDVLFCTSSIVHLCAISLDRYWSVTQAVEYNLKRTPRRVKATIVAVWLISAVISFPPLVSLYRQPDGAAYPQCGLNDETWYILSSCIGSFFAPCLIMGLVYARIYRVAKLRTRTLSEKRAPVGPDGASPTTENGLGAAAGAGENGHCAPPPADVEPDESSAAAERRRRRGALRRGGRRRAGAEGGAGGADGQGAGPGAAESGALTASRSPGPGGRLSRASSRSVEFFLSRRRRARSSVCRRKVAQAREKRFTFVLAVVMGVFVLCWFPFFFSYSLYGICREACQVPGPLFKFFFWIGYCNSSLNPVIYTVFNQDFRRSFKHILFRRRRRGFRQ
Experimental: as §1, §2

[4] = NIH-3T3 cells cotransfected with receptor and Gq/i5
[5] = NIH-3T3 cells cotransfected with receptor and Gq/i5, read-out: Alpha 2B potency nM (EC50)

Structure (SMILES) | Alpha 2A intrinsic activity (efficacy), value in parentheses [1] | EC50 [2] [nM] | Alpha 2B intrinsic activity (efficacy), value in parentheses [2, 4] | Alpha 2C intrinsic activity (efficacy), value in parentheses [3, 4] | EC50 [2, 5] [nM] | EC50 ([3]; NIH-3T3 cells cotransfected with receptor and Gq/i5, read-out: Alpha 2C potency nM (EC50)) [nM] | EC50 [3] [nM]
c1ccc(CC(c2ccccc2)c2c[nH]cn2)cc1 (stereo not shown) | No Data (.05) | 2.8 | .69 | No Data (.10) | – | – | –
Clc1cccc(C(Cc2ccccc2)c2c[nH]cn2)c1Cl (stereo not shown) | No Data (.21) | – | .97 | .41 | 8.4 | 41 | –
Clc1cccc(/C(=C/c2ccccc2)c2c[nH]cn2)c1 | No Data (.09) | 7.8 | .80 | No Data (.19) | – | – | –
Cc1ccccc1C(Cc1ccccc1)c1c[nH]cn1 (stereo not shown) | No Data (.10) | – | .69 | No Data (.21) | 101 | – | –
Fc1ccccc1C(Cc1ccccc1)c1c[nH]cn1 (stereo not shown) | No Data (.04) | 3.5 | .43 | No Data (.18) | – | – | –
Cc1cccc(C(Cc2ccccc2)c2c[nH]cn2)c1C (stereo not shown) | No Data (.28) | 2.09 | 1.01 | .36 | – | – | 26
Fc1cccc(C(Cc2ccccc2)c2c[nH]cn2)c1F (stereo not shown) | No Data (.04) | – | .53 | No Data (.17) | 4.4 | – | –
c1ccc(CC(c2ccncc2)c2c[nH]cn2)cc1 (stereo not shown) | No Data (.02) | 66 | .74 | No Data (.09) | – | – | –
